Drawing on patent US20140343000A1 (priority 2011, published 2014), this text covers EC50 for twelve compounds.

The subject of the test is recombinant NL4-3 virus (Renilla luciferase in nef, Gag P373S; NLRluc) in MT-2 cells. Kind of test: whole plant or invertebrate. The conditions noted are these: serial dilutions of inhibitor, read-out: EC50. The test is classed as cell-based, HIV. The method, boiled down: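 Luciferase signal is the read-out: after 4-5 days of infection in the presence of serially diluted compound, MT-2 cells are lysed with a premix of lysis buffer, luciferase reagent and Stop & Glo substrate, and luminescence is read immediately.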

Setting [1] is: Renilla, NL43, luciferase activity in cells infected for 4-5 days with NLRluc recombinants, class symbols (key in Table 1).
Setting [2] is: Renilla, NL43, luciferase activity in cells infected for 4-5 days with NLRluc recombinants, numeric values.

Where two headings read alike, the source gives them in different places.

`C=C(C)[C@@H]1CC[C@]2(NC(=O)N(C)CCn3ccc4ccccc43)CC[C@]3(C)[C@H](CC[C@@H]4[C@@]5(C)CC=C(c6ccc(C(=O)O)cc6)C(C)(C)[C@@H]5CC[C@]43C)[C@@H]12` [Example 48, 4-((1R,3aS,5aR,5bR,7aR,11aS,11bR,13aR,13bR)-3a-(3-(2-(1H-indol-1-yl)ethyl)-3-methylureido)-5a,5b,8,8,11a-pentamethyl-1-(prop-1-en-2-yl)-2,3,3a,4,5,5a,5b,6,7,7a,8,11,11a,11b,12,13,13a,13b-octadecahydro-1H-cyclopenta[a]chrysen-9-yl)benzoic acid]: under setting [1], the EC50 was below 100 nM. On to `C=C(C)[C@@H]1CC[C@]2(NCC(OC)OC)CC[C@]3(C)[C@H](CC[C@@H]4[C@@]5(C)CC=C(c6ccc(C(=O)O)cc6)C(C)(C)[C@@H]5CC[C@]43C)[C@@H]12` [Example 156, 4-((1R,3aS,5aR,5bR,7aR,11aS,11bR,13aR,13bR)-3a-(2,2-dimethoxyethylamino)-5a,5b,8,8,11a-pentamethyl-1-(prop-1-en-2-yl)-2,3,3a,4,5,5a,5b,6,7,7a,8,11,11a,11b,12,13,13a,13b-octadecahydro-1H-cyclopenta[a]chrysen-9-yl)benzoic acid], for which the EC50 under setting [2] was 120 nM. With `C=C(C)[C@@H]1CC[C@]2(NC(=O)CC(c3cccs3)N3CCS(=O)(=O)CC3)CC[C@]3(C)[C@H](CC[C@@H]4[C@@]5(C)CC=C(c6ccc(C(=O)O)cc6)C(C)(C)[C@@H]5CC[C@]43C)[C@@H]12` (stereo partly drawn) [Example 101], the EC50 (luciferase activity in cells infected for 4-5 days with NLRluc recombinants, class symbols (key in Table 1)) is below 100 nM.

Turning to `C=C(C)[C@@H]1CC[C@]2(NCCN3CCN(C(=O)C4CCC4)CC3)CC[C@]3(C)[C@H](CC[C@@H]4[C@@]5(C)CC=C(c6ccc(C(=O)O)cc6)C(C)(C)[C@@H]5CC[C@]43C)[C@@H]12` [Example B54, 4-((1R,3aS,5aR,5bR,7aR,11aS,11bR,13aR,13bR)-3a-((2-(4-(cyclobutanecarbonyl)piperazin-1-yl)ethyl)amino)-5a,5b,8,8,11a-pentamethyl-1-(prop-1-en-2-yl)-2,3,3a,4,5,5a,5b,6,7,7a,8,11,11a,11b,12,13,13a,13b-octadecahydro-1H-cyclopenta[a]chrysen-9-yl)benzoic acid], the EC50 under setting [1] is below 100 nM. The same measure, in the same setting: then `C=C(C)[C@@H]1CC[C@]2(NC(=O)NCCCCCN(C)C)CC[C@]3(C)[C@H](CC[C@@H]4[C@@]5(C)CC=C(c6ccc(C(=O)O)cc6)C(C)(C)[C@@H]5CC[C@]43C)[C@@H]12` [Example 60, 4-((1R,3aS,5aR,5bR,7aR,11aS,11bR,13aR,13bR)-3a-(3-(5-(dimethylamino)pentyl)ureido)-5a,5b,8,8,11a-pentamethyl-1-(prop-1-en-2-yl)-2,3,3a,4,5,5a,5b,6,7,7a,8,11,11a,11b,12,13,13a,13b-octadecahydro-1H-cyclopenta[a]chrysen-9-yl)benzoic acid], with below 100 nM.

In the case of `C=C(C)[C@@H]1CC[C@]2(NCCN3CCN(S(=O)(=O)CC)CC3)CC[C@]3(C)[C@H](CC[C@@H]4[C@@]5(C)CC=C(c6ccc(C(=O)O)cc6)C(C)(C)[C@@H]5CC[C@]43C)[C@@H]12` [Example B19, 4-((1R,3aS,5aR,5bR,7aR,11aS,11bR,13aR,13bR)-3a-((2-(4-(ethylsulfonyl)piperazin-1-yl)ethyl)amino)-5a,5b,8,8,11a-pentamethyl-1-(prop-1-en-2-yl)-2,3,3a,4,5,5a,5b,6,7,7a,8,11,11a,11b,12,13,13a,13b-octadecahydro-1H-cyclopenta[a]chrysen-9-yl)benzoic acid], under setting [1], the EC50 is below 100 nM.

In the case of `C=C(C)[C@@H]1CC[C@]2(NC(=O)Cn3ccc4ccccc43)CC[C@]3(C)[C@H](CC[C@@H]4[C@@]5(C)CC=C(c6ccc(C(=O)O)cc6)C(C)(C)[C@@H]5CC[C@]43C)[C@@H]12` [Example 90, 4-((1R,3aS,5aR,5bR,7aR,11aS,11bR,13aR,13bR)-3a-(2-(1H-indol-1-yl)acetamido)-5a,5b,8,8,11a-pentamethyl-1-(prop-1-en-2-yl)-2,3,3a,4,5,5a,5b,6,7,7a,8,11,11a,11b,12,13,13a,13b-octadecahydro-1H-cyclopenta[a]chrysen-9-yl)benzoic acid], under setting [2], the EC50 was 20 nM.

In the case of `C=C(C)[C@@H]1CC[C@]2(NCCNc3ncccn3)CC[C@]3(C)[C@H](CC[C@@H]4[C@@]5(C)CC=C(c6ccc(C(=O)O)cc6)C(C)(C)[C@@H]5CC[C@]43C)[C@@H]12` [Example 199, 4-((1R,3aS,5aR,5bR,7aR,11aS,11bR,13aR,13bR)-5a,5b,8,8,11a-pentamethyl-1-(prop-1-en-2-yl)-3a-(2-(pyrimidin-2-ylamino)ethylamino)-2,3,3a,4,5,5a,5b,6,7,7a,8,11,11a,11b,12,13,13a,13b-octadecahydro-1H-cyclopenta[a]chrysen-9-yl)benzoic acid], under setting [1], the EC50 was below 100 nM. For the compound `C=C(C)[C@@H]1CC[C@]2(NC(=O)CN3CCCCS3(=O)=O)CC[C@]3(C)[C@H](CC[C@@H]4[C@@]5(C)CC=C(c6ccc(C(=O)O)cc6)C(C)(C)[C@@H]5CC[C@]43C)[C@@H]12` [Example 117, benzoic acid, 4-[(1R,3aS,5aR,5bR,7aR,11aS,11bR,13aR,13bR)-2,3,3a,4,5,5a,5b,6,7,7a,8,11,11a,11b,12,13,13a,13b-octadecahydro-5a,5b,8,8,11a-pentamethyl-1-(1-methylethenyl)-3a-[[(tetrahydro-1,1-dioxido-2H-1,2-thiazin-2-yl)acetyl]amino]-1H-cyclopenta[a]chrysen-9-yl]], the EC50 under setting [1] was below 100 nM. On the same count and under the same terms, then `CC(C)[C@@H]1CC[C@]2(NCCCN3CCOCC3)CC[C@]3(C)[C@H](CC[C@@H]4[C@@]5(C)CC=C(c6ccc(C(=O)O)cc6)C(C)(C)[C@@H]5CC[C@]43C)[C@@H]12` [Example B11, 4-((1S,3aS,5aR,5bR,7aR,11aS,11bR,13aR,13bR)-1-isopropyl-5a,5b,8,8,11a-pentamethyl-3a-((3-morpholinopropyl)amino)-2,3,3a,4,5,5a,5b,6,7,7a,8,11,11a,11b,12,13,13a,13b-octadecahydro-1H-cyclopenta[a]chrysen-9-yl)benzoic acid], with below 100 nM; and `C=C(C)[C@@H]1CC[C@]2(NC(=O)Cc3ncccn3)CC[C@]3(C)[C@H](CC[C@@H]4[C@@]5(C)CC=C(c6ccc(C(=O)O)cc6)C(C)(C)[C@@H]5CC[C@]43C)[C@@H]12` [Example 126, 4-((1R,3aS,5aR,5bR,7aR,11aS,11bR,13aR,13bR)-5a,5b,8,8,11a-pentamethyl-1-(prop-1-en-2-yl)-3a-(2-(pyrimidin-2-yl)acetamido)-2,3,3a,4,5,5a,5b,6,7,7a,8,11,11a,11b,12,13,13a,13b-octadecahydro-1H-cyclopenta[a]chrysen-9-yl)benzoic acid], with below 100 nM. Still for that read-out and setting: then `CC(C)[C@@H]1CC[C@]2(NC(=O)CN3CCS(=O)(=O)CC3)CC[C@]3(C)[C@H](CC[C@@H]4[C@@]5(C)CC[C@H](c6ccc(C(=O)O)cc6)C(C)(C)[C@@H]5CC[C@]43C)[C@@H]12` [Example 130, 4-((1S,3aS,5aR,5bR,7aS,9S,11aS,11bR,13aR,13bR)-3a-(((1,1-dioxido-4-thiomorpholinyl)acetyl)amino)-1-isopropyl-5a,5b,8,8,11a-pentamethylicosahydro-1H-cyclopenta[a]chrysen-9-yl)benzoic acid], with below 100 nM.

The term EC50 denotes the concentration that produces a half-maximal response.
